How the values were obtained:
[1] = biological target: Tubulin (Sus scrofa) (UniProt P02554+P02550); assay: Inhibition of pig brain tubulin polymerization at >5 uM by spectrophotometric method relative to control
[2] = tested on: HeLa; assay: Induction of cell cycle arrest in human HeLa cells assessed as accumulation at G2/M phase incubated for 24 hrs by PI staining based flow cytometric analysis; assay type: functional
[3] = tested on: HeLa; assay: Induction of apoptosis in human HeLa cells assessed as late apoptotic cells at 250 nM incubated for 48 hrs by annexin V-FITC/propidium iodide staining based flow cytometric analysis (reference value: 2.09%); assay type: functional
[4] = tested on: HeLa; assay: Induction of apoptosis in human HeLa cells assessed as live cells at 200 nM incubated for 48 hrs by annexin V-FITC/propidium iodide staining based flow cytometric analysis (reference value: 95.3%); assay type: functional
[5] = tested on: HeLa; assay: Induction of apoptosis in human HeLa cells assessed as late apoptotic cells at 200 nM incubated for 48 hrs by annexin V-FITC/propidium iodide staining based flow cytometric analysis (reference value: 2.09%); assay type: functional
[6] = tested on: HeLa; assay: Induction of cell cycle arrest in human HeLa cells assessed as accumulation at G2/M phase at 200 nM incubated for 24 hrs by PI staining based flow cytometric analysis (reference value: 9.20%); assay type: functional
[7] = tested on: HeLa; assay: Induction of cell cycle arrest in human HeLa cells assessed as accumulation at G0/G1 phase at 500 nM incubated for 24 hrs by PI staining based flow cytometric analysis (reference value: 68.86%); assay type: functional
[8] = tested on: HeLa; assay: Induction of apoptosis in human HeLa cells assessed as early apoptotic cells at 100 nM incubated for 48 hrs by annexin V-FITC/propidium iodide staining based flow cytometric analysis (reference value: 2.34%); assay type: functional
[9] = tested on: HeLa; assay: Induction of apoptosis in human HeLa cells assessed as early apoptotic cells at 200 nM incubated for 48 hrs by annexin V-FITC/propidium iodide staining based flow cytometric analysis (reference value: 2.34%); assay type: functional
[10] = tested on: HeLa; assay: Induction of cell cycle arrest in human HeLa cells assessed as accumulation at G0/G1 phase at 250 nM incubated for 24 hrs by PI staining based flow cytometric analysis (reference value: 68.86%); assay type: functional
[11] = tested on: HeLa; assay: Induction of apoptosis in human HeLa cells assessed as live cells at 100 nM incubated for 48 hrs by annexin V-FITC/propidium iodide staining based flow cytometric analysis (reference value: 95.3%); assay type: functional
[12] = tested on: HeLa; assay: Induction of mitochondrial membrane potential disruption in human HeLa cells at 200 nM incubated for 48 hrs by JC1 staining based flow cytometric analysis (reference value: 10.6%); assay type: functional

Sequence of Tubulin (Sus scrofa) (P02550 whole entry, looked up): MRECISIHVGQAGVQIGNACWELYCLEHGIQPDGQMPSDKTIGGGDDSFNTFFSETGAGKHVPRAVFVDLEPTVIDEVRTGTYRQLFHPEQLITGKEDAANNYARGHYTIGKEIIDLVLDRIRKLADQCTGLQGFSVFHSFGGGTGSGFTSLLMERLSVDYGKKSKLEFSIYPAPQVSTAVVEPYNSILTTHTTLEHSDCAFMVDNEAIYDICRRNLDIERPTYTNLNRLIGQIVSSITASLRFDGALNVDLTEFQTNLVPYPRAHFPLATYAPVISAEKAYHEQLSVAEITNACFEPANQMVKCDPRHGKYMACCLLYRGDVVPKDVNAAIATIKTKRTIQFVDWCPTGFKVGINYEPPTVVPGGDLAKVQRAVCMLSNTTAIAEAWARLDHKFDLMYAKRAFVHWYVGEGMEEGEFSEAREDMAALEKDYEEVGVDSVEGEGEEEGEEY
Sequence of Tubulin (Sus scrofa) (P02554 whole entry, looked up): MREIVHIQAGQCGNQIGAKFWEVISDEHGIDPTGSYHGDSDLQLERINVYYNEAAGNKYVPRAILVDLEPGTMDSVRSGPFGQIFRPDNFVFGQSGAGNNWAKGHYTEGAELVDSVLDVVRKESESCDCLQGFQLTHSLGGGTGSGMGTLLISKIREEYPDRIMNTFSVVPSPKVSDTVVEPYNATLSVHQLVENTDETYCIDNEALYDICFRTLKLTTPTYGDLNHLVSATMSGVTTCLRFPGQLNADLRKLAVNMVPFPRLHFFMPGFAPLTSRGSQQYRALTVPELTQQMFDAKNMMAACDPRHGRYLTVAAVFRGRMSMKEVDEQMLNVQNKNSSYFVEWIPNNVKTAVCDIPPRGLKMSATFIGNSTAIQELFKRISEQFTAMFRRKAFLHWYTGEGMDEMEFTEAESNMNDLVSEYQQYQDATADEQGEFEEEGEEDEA

COc1cc(C(=O)c2nc(Nc3cccc(C)c3)nc3ccsc23)cc(OC)c1OC
inhibition [1]: 50%
Activity [2]: Dose-dependent effect
Activity [3]: 62.2%
Activity [4]: 83.3%
Activity [5]: 10.7%
Activity [6]: 19.09%
Activity [7]: 0.06%
Activity [8]: 3.11%
Activity [9]: 3.2%
Activity [10]: 2.39%
Activity [11]: 94.1%
Activity [12]: 30.9%

— ChEMBL document CHEMBL4311971, “Design and synthesis of (2-(phenylamino)thieno[3,2-d]pyrimidin-4-yl)(3,4,5-trimethoxyphenyl)methanone analogues as potent anti-tubulin polymerization agents” (Eur J Med Chem, 2019)
